Here are results for six sequences from US11213563B2, “Polypeptide and use thereof” (Genoimmune Therapeutics Co., Ltd., priority 2016, dated 2022).

Assay [1] concerns human non-small cell lung adenocarcinoma cell line H2087-polypeptide FILDGLYSV
Description: Lentivirus-infected DCs vaccine in subcutaneous tumor-modeled NOD/SCID mice. In kind it is in vivo. To be noted: DCs infected with lentivirus expressing the polypeptide, intracutaneous, 2 injections; vs wild-type lentivirus DCs. The procedure:
After isolated with Ficoll solution from 600 to 900 ml anticoagulant peripheral blood from a healthy volunteer, the collected PBMCs in a concentration of 2×10^7 cells/0.5 ml were intraperitoneally injected into each of 300 NOD SCID mice without immune leakage, so as to reconstruct a human immune system in the NOD SCID mice, with the mice after 4 weeks selected for subsequent inoculation of the human non-small cell lung adenocarcinoma cell line H2087-polypeptide […] obtained in 6.2.
The human non-small cell lung adenocarcinoma cell line H2087-polypeptide […] (SEQ ID NO:1) obtained in 6.2 was incubated in DMEM medium containing 10% fetal calf serum, 100 U/mL penicillin and 100 U/mL streptomycin in an incubator under 37° C. and 5% CO2, and then the cells were centrifuged at 3000 rpm for collection. The collected cells were washed with sterile physiological saline three times, and then diluted appropriately. To 40 μl tumor cell suspension, 10 μl 0.4% […] was added for staining, subsequently the tumor cell suspension in a concentration of 1×10^8 cells/ml was prepared after counting under microscope. 100 μl of the tumor cell suspension was inoculated into each of the NOD/SCID mice by subcutaneous injection at 4 weeks post immune reconstruction in 6.3, with daily observation of the presence/absence of infection at inoculation sites, the increase/decrease of tumor size (in the case of presence of a tumor), and measurement of the major axis (a) and the minor axis (b) of a tumor by a vernier caliper every 2 or 3 days (where the tumor size=a×b×b/2). After 7 days from inoculation, a tumor in a size of rice grain was touchable at the inoculation site. After that, the subcutaneous tumor-modeled NOD/SCID mice (modeled with H2087-polypeptide […] (SEQ ID NO:1)) were treated with a polypeptide+complete Freund's adjuvant vaccine, a polypeptide+DCs vaccine, a lentivirus-infected DCs vaccine and a DC-CTL vaccine respectively, with the tumor size and mouse survival rate observed and recorded every 2 days.
Peripheral blood mononuclear cells (PBMCs) in 100 to 150 mL anticoagulant peripheral blood obtained from a healthy volunteer were isolated with Ficoll solution. After the collected PBMCs were incubated at 37° C. for 2 hours and the non-adherent PBLs were removed, the adherent monocytes were cultured in the presence of recombinant human granulocyte macrophage colony stimulating factor (rhGM-CSF) and recombinant human interleukin-4 (rhIL-4). […] After 24 hours' incubation, the collected cells with lentivirus-containing medium removed were again incubated in a fresh medium containing 50 ng/ml rhIL-4, 100 ng/ml rh GM-CSF, 100 U/ml IFN-γ and 100 U/ml CD40L in an incubator under 37° C. and 5% CO2 for 48 to 72 hours, so as to induce mature DCs, and then the DCs infected with lentivirus were observed under the fluorescence microscope. The collected mature DCs were washed with physiological saline three times and diluted with the physiological saline to a concentration of (4.0±0.5)×10^7 cells/ml for use. The subcutaneous tumor-modeled NOD/SCID mice obtained in 6.4 of the example 6 were randomly divided into seven groups as below, with 6 mice per group.
The vital signs of the mice were observed after administration, and the major axis (a) and the minor axis (b) of a tumor were measured by a vernier caliper every 2 days for calculation of tumor size according to a formula of a×b×b/2, with the weight change and survival rate observed and recorded.

In assay [2] the test system is T2 cells. Description: LDH release assay of CD8+ T cell killing activity. In kind it is cell-based, human. The arrangement: Killing efficiency: concentration or dose not given beside the values. To be noted: for Killing efficiency: 4 hours; for Killing of T2 cells loaded with the mutant polypeptide by activated T cells / Killing of T2 cells loaded with the wild-type polypeptide by activated T cells: ratio of effector cells to target cells of 1:1 or 1:10 (so in the source). The procedure: The mixture of cells collected in the example 3 were incubated with the T2 cells loaded with the mutant polypeptide (depicted in […], SEQ ID NO:1) or the wild-type polypeptide (depicted in […], SEQ ID NO:7), or the T2 cells without polypeptide respectively for 4 hours; after which […], cell supernatant collected from each well was individually added into 50 μL substrate mixture of LDH for catalyzation of the LDH substrate, and the absorbance at wavelengths of 490 nm and 680 nm (as a reference) is measured, where a maximum release well, a volume correction well, a medium alone well, a spontaneous release well of effector cell and a spontaneous release well of target well as different control wells, as well effector cells (T cells) and target cells (T2 cell) in different ratios as experiment wells are set in triplicate.
The killing efficiency of CD8^+ T cells to T2 cells is calculated by the following formula: Killing efficiency (%)=(experiment well−spontaneous release well of effector cell−spontaneous release well of target well+medium alone well)/(maximum release well of target well-volume correction well-spontaneous release well of target well+medium alone well)×100%.

In assay [3] the test system is CD8^+ T cells. The experiment in a line: IFN-γ ELISPOT of CD8+ T cell immune response activated by polypeptide. In kind it is cell-based, human. To be noted: for Conclusion (immunogenicity): ELISPOT spot ratio >2 criterion; for Number of spots produced by mutant polypeptide or each of its variants / Number of spots produced by wild-type polypeptide: IFN-γ ELISPOT, T cells activated by the listed polypeptide; for Number of spots produced by mutant polypeptide or each of its variants: T2 cells loaded with mutant polypeptide; for Number of spots produced by wild-type polypeptide: T2 cells loaded with wild-type polypeptide FILDGSYSV; for Ratio of mutant polypeptide to wild-type polypeptide: spot number ratio, >2 indicates immunogenicity. The source says: The mutant polypeptide with immunogenicity should meet the following requirement:
Spots number of mutant polypeptide/spots number of wild-type polypeptide>2,
After specifically recognizing the complex of HLA-A0201 and the mutant polypeptide, the polypeptide specific-CD8^+T cell is activated and secretes IFN-γ, which will be captured by the firstly antibody coated on the ELISPOT plate and further be bound by an enzyme-coupled secondly antibody, and finally developed by addition of a substrate which can be catalyzed by the enzyme, thus forming colored spots. The number of spots produced represents the number of the IFN-γ secreted by the activated CD8^+T cell.

[4] abbreviates: T cells activated by listed polypeptide + T2 cells loaded with mutant FILDGLYSV, effector:target 1:1.
Where [5] appears, read: T cells activated by listed polypeptide + T2 cells loaded with mutant FILDGLYSV, effector:target 10:1.
The mark [6] stands for this setting: T cells activated by listed polypeptide + T2 cells loaded with wild-type FILDGSYSV, effector:target 1:1.
Where [7] appears, read: T cells activated by listed polypeptide + T2 cells loaded with wild-type FILDGSYSV, effector:target 10:1.

On to FMLDGLYSL, for which, in assay [1], the Mouse survival period entry is on record as “prolonging mouse survival period effectively” and the Tumor growth result is “inhibiting tumor growth”. Further, in assay [2] (setting [4]), the Killing efficiency amounted to 8.96%. In addition, the Killing efficiency in assay [2] (setting [5]) is recorded as 40.13%. Also, in assay [2] (setting [6]), the Killing efficiency is 3.13%. For the same sequence, the Killing efficiency in assay [2] (setting [7]) was 5.83%. In assay [2], the “Killing of T2 cells loaded with the mutant polypeptide by activated T cells” value is listed as “capable of killing” and the “Killing of T2 cells loaded with the wild-type polypeptide by activated T cells” value is “could not kill”. For the same sequence, in assay [3], the “Conclusion (immunogenicity)” value is listed as “immunogenic”, the “Number of spots produced by mutant polypeptide or each of its variants” value (“Number of spots produced … of its variants” for short) came to 319, the “Number of spots produced by wild-type polypeptide” value (“Number … by wild-type polypeptide” below) was determined as 35 and the “Ratio of mutant polypeptide to wild-type polypeptide” value (from here on “Ratio of mutant polypeptide”) is reported as 9.11.

Turning to “FLLDGLYSV [mutant polypeptide's variant, Leucine at position 2]”, in assay [1], the Mouse survival period result is listed as “prolonging mouse survival period effectively” and the Tumor growth entry is on record as “inhibiting tumor growth”. In addition, the Killing efficiency in assay [2] (setting [4]) is listed as 8.38%. In addition, in assay [2] (setting [5]), the Killing efficiency is reported as 39.16%. The Killing efficiency in assay [2] (setting [6]) is reported as 2.85%. Moreover, the Killing efficiency in assay [2] (setting [7]) stood at 5.43%. Further, in assay [2], the “Killing of T2 cells loaded with the mutant polypeptide by activated T cells” value is reported as “capable of killing” and the “Killing of T2 cells loaded with the wild-type polypeptide by activated T cells” value was “could not kill”. Besides, in assay [3], the “Conclusion (immunogenicity)” value is “immunogenic”, the “Number of spots produced … of its variants” value amounted to 301, the “Number … by wild-type polypeptide” value is reported as 42 and the “Ratio of mutant polypeptide” value came to 7.17.

As to “FILDGLYSV [mutant polypeptide from COL21A1, Serine at position 45 mutated into Leucine]”, in assay [1], the Mouse survival period entry is listed as “prolonging mouse survival period effectively” and the Tumor growth entry is reported as “inhibiting tumor growth”. In addition, in assay [2] (setting [4]), the Killing efficiency worked out at 7.33%. Also, in assay [2] (setting [5]), the Killing efficiency was found to be 37.39%. For the same sequence, the Killing efficiency in assay [2] (setting [6]) stood at 2.07%. Moreover, the Killing efficiency in assay [2] (setting [7]) amounted to 4.93%. Also, in assay [2], the “Killing of T2 cells loaded with the mutant polypeptide by activated T cells” value is “capable of killing” and the “Killing of T2 cells loaded with the wild-type polypeptide by activated T cells” value is reported as “could not kill”. In addition, in assay [3], the “Conclusion (immunogenicity)” value is recorded as “immunogenic”, the “Number of spots produced … of its variants” value is reported as 296, the “Number … by wild-type polypeptide” value worked out at 29 and the “Ratio of mutant polypeptide” value was 10.2.

For FMLDGLYSV, in assay [1], the Mouse survival period result was “prolonging mouse survival period effectively” and the Tumor growth result is reported as “inhibiting tumor growth”. For the same sequence, the Killing efficiency in assay [2] (setting [4]) is reported as 9.15%. In addition, the Killing efficiency in assay [2] (setting [5]) is on record as 42.10%. Besides, the Killing efficiency in assay [2] (setting [6]) turned out to be 2.37%. The Killing efficiency in assay [2] (setting [7]) worked out at 5.63%. For the same sequence, in assay [2], the “Killing of T2 cells loaded with the mutant polypeptide by activated T cells” value is “capable of killing” and the “Killing of T2 cells loaded with the wild-type polypeptide by activated T cells” value is listed as “could not kill”. Also, in assay [3], the “Conclusion (immunogenicity)” value is given as “immunogenic”, the “Number of spots produced … of its variants” value is recorded as 335, the “Number … by wild-type polypeptide” value was determined as 50 and the “Ratio of mutant polypeptide” value is on record as 6.7.

For the sequence “FLLDGLYSL [mutant polypeptide's variant, Leucine at positions 2 and 9]”, in assay [1], the Mouse survival period result is on record as “prolonging mouse survival period effectively” and the Tumor growth entry is listed as “inhibiting tumor growth”. In assay [2] (setting [4]), the Killing efficiency stood at 7.05%. For the same sequence, the Killing efficiency in assay [2] (setting [5]) turned out to be 35.15%. Further, the Killing efficiency in assay [2] (setting [6]) amounted to 3.56%. Further, the Killing efficiency in assay [2] (setting [7]) stood at 6.21%. Moreover, in assay [2], the “Killing of T2 cells loaded with the mutant polypeptide by activated T cells” value is reported as “capable of killing” and the “Killing of T2 cells loaded with the wild-type polypeptide by activated T cells” value was “could not kill”. Besides, in assay [3], the “Conclusion (immunogenicity)” value was “immunogenic”, the “Number of spots produced … of its variants” value came to 279, the “Number … by wild-type polypeptide” value turned out to be 24 and the “Ratio of mutant polypeptide” value is 11.62.

On to “FILDGLYSL [mutant polypeptide's variant, Leucine at position 9]”, for which, in assay [1], the Mouse survival period entry is given as “prolonging mouse survival period effectively” and the Tumor growth result is recorded as “inhibiting tumor growth”. Also, in assay [2] (setting [4]), the Killing efficiency turned out to be 8.09%. Further, the Killing efficiency in assay [2] (setting [5]) is 38.60%. In addition, in assay [2] (setting [6]), the Killing efficiency is recorded as 3.12%. Further, the Killing efficiency in assay [2] (setting [7]) was 4.71%. Also, in assay [2], the “Killing of T2 cells loaded with the mutant polypeptide by activated T cells” value is reported as “capable of killing” and the “Killing of T2 cells loaded with the wild-type polypeptide by activated T cells” value was “could not kill”. Moreover, in assay [3], the “Conclusion (immunogenicity)” value is recorded as “immunogenic”, the “Number of spots produced … of its variants” value is 313, the “Number … by wild-type polypeptide” value amounted to 37 and the “Ratio of mutant polypeptide” value was 8.46.
